Assay results published in patent publication US20230016034A1, “ENHANCEMENT OF iPSC-DERIVED EFFECTOR IMMUNE CELL USING SMALL COMPOUNDS” (Fate Therapeutics, Inc., priority 2019, published 2023).

Test system: Nalm6-luciferase cells
Test: In vivo efficacy of dexamethasone-treated post-thaw CD19-CAR iT cells, systemic Nalm6-luciferase model
Set-up: species or system NSG female mice
Conditions: p>0.1
Excerpt: Tumor progression was monitored at days 7, 14 and 20 post tumor injection by bioluminescent imaging. CAR-iT cells treated with dexamethasone (FIG. 8B) were compared with control cells without dexamethasone treatment (FIG. 8A) in cultures for iv/iv in vivo efficacy.

C[C@@H]1C[C@H]2[C@@H]3CCC4=CC(=O)C=C[C@]4(C)[C@@]3(F)[C@@H](O)C[C@]2(C)[C@@]1(O)C(=O)CO [dexamethasone]
Days of survival: > 80 days
